One molecule from article PMC5809559, “DYRK1A inhibition and cognitive rescue in a Down syndrome mouse model are induced by new fluoro-DANDY derivatives” (Scientific Reports, 2018) can be followed below.

Like-named read-outs stand apart in the source and are kept apart here.

Data set [1] can be described thus: Plasma and brain homogenate concentrations after Morris Water Maze (UHPLC-MS/MS). The data set is classed as in vivo, mice. The note with it: for average plasma concentration: 20 mg/kg i.p. daily, after MWM; for Kp: mouse, brain, intraperitoneal, 20 mg/kg, read-out: partition coefficient at steady state (Kp = brain concentration/plasma concentration). The procedure: […]. To that end, all animals were sacrificed directly after the Morris Water Maze (MWM) and plasma and brain homogenates (one hemisphere) were extracted and analyzed. […]. […] […]. However, Kp values might be underestimated due to high plasma levels that could saturate efflux transport to the brain.
All plasma and brain homogenate extracts were analyzed by an ultra-high performance liquid chromatography (UHPLC) system coupled to a triple-quadrupole mass spectrometer (Dionex Ultimate 3000 RSLC system coupled to a TSQ Vantage EMR, Thermo Scientific, Les Ulis, France). UHPLC separation was performed using a C18 column (HSS T3, 2.1 mm × 150 mm, 1.7 μm, Waters, Guyancourt, France) equipped with a guard column (HSS T3, 2.1 mm × 5 mm, 1.7 μm, Waters, Guyancourt, France) and maintained at 40 °C. The mobile phases were water, 0.1% formic acid (A) and acetonitrile (B). […]. Injection volume was 4 µL and the autosampler was maintained at 6 °C. Ionization was performed with a heated electrospray ionization source in positive mode. The source parameters were set as follows: spray voltage 3350 V, vaporizer temperature 250 °C, sheath gas (N2) pressure 55 psi, auxiliary gas pressure (N2) 25 psi, capillary temperature 350 °C. Analysis was performed under the Selected Reaction Monitoring (SRM) mode using several transitions for each compound at optimized collision energies (see Table SI2 and Figure SI1). […]. Data acquisition was performed using ThermoScientific Xcalibur 2.1 software system. All samples were analyzed in triplicate.
Two compounds, V[34] (Fig. 9) and 5d, were tested as internal standard (IS). […] Calibration curve points and quality control (QC) points were realized in spiked plasma or brain homogenate samples (Figure SI2). […]. Samples with concentrations above the upper calibration point were diluted to be in the calibration range. Limit of quantification (LOQ) was determined as the lowest point of the calibration curve at 1.6 pg/μL. QC samples were prepared at 14.5 and 58 pg/μL to validate the between-run precision (n = 3, RSD of 13% and 5%, respectively), between-run trueness was 95 and 88% respectively. […]. Limit of quantification (LOQ) was determined as the lowest point of the calibration curve at 1.6 pg/mg. QC samples were prepared at 3.2 and 22.4 pg/mg to validate the between-run precision (n = 3, RSD of 8% and 2% respectively), between-run trueness was 129 and 93% respectively.
Immediately following last day of training in the MWM, mice were sacrificed by decapitation for maximal blood collection and the brain was immediately extracted from the skull, the cerebellum removed and the hemispheres separated and frozen at −80 °C. Plasma was obtained as described above. […]. Subsequently, the IS was added to 400 µL of homogenate which was then centrifuged (12 min, 14000 × g, 4 °C). The supernatant was evaporated and transferred into 40 µL acetonitrile/methanol/water (2/2/1). After centrifugation (12 min, 14000 × g, 4 °C), 4 µL of supernatant was used for UHPLC-MS/MS analysis.

The target of data set [2] is T1, DYRK1A catalytic domain (DYRK1A-ΔC) (Rattus norvegicus, UniProt Q63470).
T1 construct: The cDNA coding for the catalytic domain (residues 1-502) of rat DYRK1A; 6xHis; made in house; host or cells: E. coli BL21(DE3), pET28
In words: In vitro DYRK1A kinase inhibition, UFLC assay with fluorescent peptide substrate. The data set is classed as biochemical. The following applies: IC50, in vitro inhibition of DYRK1A, 3,5-diaryl-7-azaindoles 5a-5g, Fig. 5.

Data set [3] can be described thus: Bioavailability in plasma after i.p. injection (UHPLC-MS/MS). The data set is classed as in vivo. The note with it: mouse, ip, WT mice, 20 mg/kg i.p. The protocol: Before undertaking behavioral studies in Ts65Dn mice, the bioavailability of F-DANDY 5a in plasma after peripheral (intraperitoneal – i.p.) injection in mice was determined. […] The sample preparation and analytical protocol were adapted from Bonneau et al.[38],[39]. […] A 30 min interval was thus selected between time of injection and behavioral assessment.
All plasma and brain homogenate extracts were analyzed by an ultra-high performance liquid chromatography (UHPLC) system coupled to a triple-quadrupole mass spectrometer (Dionex Ultimate 3000 RSLC system coupled to a TSQ Vantage EMR, Thermo Scientific, Les Ulis, France). UHPLC separation was performed using a C18 column (HSS T3, 2.1 mm × 150 mm, 1.7 μm, Waters, Guyancourt, France) equipped with a guard column (HSS T3, 2.1 mm × 5 mm, 1.7 μm, Waters, Guyancourt, France) and maintained at 40 °C. The mobile phases were water, 0.1% formic acid (A) and acetonitrile (B). […] A washing step in acetonitrile/isopropanol was added to limit carryover problems. Injection volume was 4 µL and the autosampler was maintained at 6 °C. Ionization was performed with a heated electrospray ionization source in positive mode. The source parameters were set as follows: spray voltage 3350 V, vaporizer temperature 250 °C, sheath gas (N2) pressure 55 psi, auxiliary gas pressure (N2) 25 psi, capillary temperature 350 °C. Analysis was performed under the Selected Reaction Monitoring (SRM) mode using several transitions for each compound at optimized collision energies (see Table SI2 and Figure SI1). […] Data acquisition was performed using ThermoScientific Xcalibur 2.1 software system. All samples were analyzed in triplicate.
Two compounds, V[34] […] Limit of quantification (LOQ) was determined as the lowest point of the calibration curve at 1.6 pg/μL. […] Limit of quantification (LOQ) was determined as the lowest point of the calibration curve at 1.6 pg/mg. […]
Using an optimized Ultra Performance Liquid Chromatography with tandem mass spectrometry (UPLC-MS/MS), compound 5a was subsequently quantified in plasma. […] All samples were analyzed in triplicate.

What is called IC50 is the midpoint of a concentration-inhibition curve. Low values mean greater potency, high ones weaker potency.

Consider `Oc1ccc(-c2cnc3[nH]cc(-c4ccc(F)cc4)c3c2)cc1O` [Compound 5a, 3-(4-fluorophenyl)-5-(3,4-dihydroxyphenyl)-1H-pyrrolo[2,3-b]pyridine], for which the average plasma concentration in data set [1] (Ts65Dn mice, n = 9) worked out at 0.84 ± 0.54 µM; in data set [1] (WT mice, n = 10) it was 0.50 ± 0.28 µM. Further, the mean brain concentration in data set [1] (Ts65Dn mice, n = 5, assuming vascular space 15 µL/g tissue) stood at 6.67 ± 4.64 µM; in data set [1] (WT mice, n = 4, assuming vascular space 15 µL/g tissue), 6.61 ± 5.35 µM. Further, the Kp in data set [1] (Ts65Dn mice) amounted to 6.43 ± 3.38; in data set [1] (WT mice), 10.8 ± 9.55. Half-maximal inhibition in data set [2] (IC50) required 0.0207 µM. Moreover, the concentration at 2.5 h in data set [3] (after slow decrease over 2.5 hours, read-out: plasma level) is roughly 50 ng/mL. Besides, the concentration at 4.4 min in data set [3] (t = 4.4 min) was determined as 312 ng/mL. For the same molecule, the concentration at 5.4 min in data set [3] (t = 5.4 min) was determined as 236 ng/mL.
